For 31 compounds, IC50 results are on record in patent US6638973B2, “Taxane formulations” (FSU Research Foundation, Inc., priority 2000, dated 2003).

Molecules are shown by their SMILES. Where only a bound is given, the exact number is not on record here.

In one assay the test system is HCT116 cells. Description: In vitro cytotoxicity measured by the cell colony formation assay. The settings on record: HCT116 cells, 72 h incubation with drug, colonies counted after 7 days; ID50 = drug concentration producing 50% inhibition of colony formation; read-out: IN VITRO ID 50 (nm) HCT116. The format is cell-based. A digest of the protocol:
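Colony-forming survival was scored 7 days after a 72 h, 37 °C compound exposure followed by washout into fresh medium.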
For `COC(=O)O[C@H]1C(=O)[C@@]2(C)C([C@H](OC(=O)c3ccccc3)[C@]3(O)C[C@H](OC(=O)[C@H](O)[C@@H](NC(=O)OC(C)(C)C)c4ccco4)C(C)=C1C3(C)C)[C@]1(OC(C)=O)CO[C@@H]1C[C@@H]2O` (stereo partly shown) [Compound 2666], the IC50 is less than 1 nM.

The assay is the same for the next values; noted with them: HCT116 cells, colony formation, 72 h incubation with drug, colonies counted after 7 days; ID50 = drug concentration producing 50% inhibition of colony formation; read-out: IN VITRO ID 50 (nm) HCT116.
Consider `CCNC(=O)O[C@H]1C(=O)[C@@]2(C)C([C@H](OC(=O)c3ccccc3)[C@]3(O)C[C@H](OC(=O)[C@H](O)[C@@H](NC(=O)OC(C)(C)C)c4ccccn4)C(C)=C1C3(C)C)[C@]1(OC(C)=O)CO[C@@H]1C[C@@H]2O` (stereo partly shown) [Compound 2600], for which the IC50 is less than 1 nM.

For the compound `CCNC(=O)O[C@H]1C(=O)[C@@]2(C)C([C@H](OC(=O)c3ccccc3)[C@]3(O)C[C@H](OC(=O)[C@H](O)[C@@H](NC(=O)OC(C)(C)C)c4cccnc4)C(C)=C1C3(C)C)[C@]1(OC(C)=O)CO[C@@H]1C[C@@H]2O` (stereo partly shown) [Compound 2616], the IC50 stood at 27 nM.

As to `CCNC(=O)O[C@H]1C(=O)[C@@]2(C)C([C@H](OC(=O)c3ccccc3)[C@]3(O)C[C@H](OC(=O)[C@H](O)[C@@H](NC(=O)OC(C)(C)C)c4ccsc4)C(C)=C1C3(C)C)[C@]1(OC(C)=O)CO[C@@H]1C[C@@H]2O` (stereo partly shown) [Compound 2622], the IC50 was less than 1 nM.

As for `CCNC(=O)O[C@H]1C(=O)[C@@]2(C)C([C@H](OC(=O)c3ccccc3)[C@]3(O)C[C@H](OC(=O)[C@H](O)[C@@H](NC(=O)OC(C)(C)C)C(C)C)C(C)=C1C3(C)C)[C@]1(OC(C)=O)CO[C@@H]1C[C@@H]2O` (stereo partly shown) [Compound 2633], the IC50 was less than 10 nM.

Consider `CCNC(=O)O[C@H]1C(=O)[C@@]2(C)C([C@H](OC(=O)c3ccccc3)[C@]3(O)C[C@H](OC(=O)[C@H](O)[C@@H](NC(=O)OC(C)(C)C)c4ccccc4)C(C)=C1C3(C)C)[C@]1(OC(C)=O)CO[C@@H]1C[C@@H]2O` (stereo partly shown) [Compound 2640], for which the IC50 is less than 1 nM.

In the case of `CCNC(=O)O[C@H]1C(=O)[C@@]2(C)C([C@H](OC(=O)c3ccccc3)[C@]3(O)C[C@H](OC(=O)[C@H](O)[C@H](C=C(C)C)NC(=O)OC(C)(C)C)C(C)=C1C3(C)C)[C@]1(OC(C)=O)CO[C@@H]1C[C@@H]2O` (stereo partly shown) [Compound 2686], the IC50 was less than 1 nM.

With `CCNC(=O)O[C@H]1C(=O)[C@@]2(C)C([C@H](OC(=O)c3ccccc3)[C@]3(O)C[C@H](OC(=O)[C@H](O)[C@@H](NC(=O)OC(C)(C)C)c4ccco4)C(C)=C1C3(C)C)[C@]1(OC(C)=O)CO[C@@H]1C[C@@H]2O` (stereo partly shown) [Compound 2700], the IC50 was less than 1 nM.

For `CCNC(=O)O[C@H]1C(=O)[C@@]2(C)C([C@H](OC(=O)c3ccccc3)[C@]3(O)C[C@H](OC(=O)[C@H](O)[C@@H](NC(=O)OC(C)(C)C)c4ccoc4)C(C)=C1C3(C)C)[C@]1(OC(C)=O)CO[C@@H]1C[C@@H]2O` (stereo partly shown) [Compound 2717], the IC50 is less than 1 nM.

Turning to `CCNC(=O)O[C@H]1C(=O)[C@@]2(C)C([C@H](OC(=O)c3ccccc3)[C@]3(O)C[C@H](OC(=O)[C@H](O)[C@@H](NC(=O)OC(C)(C)C)c4cccs4)C(C)=C1C3(C)C)[C@]1(OC(C)=O)CO[C@@H]1C[C@@H]2O` (stereo partly shown) [Compound 2722, 3′-Desphenyl-3′-(2-thienyl)-10-N-ethylcarbamoyl docetaxel], the IC50 is less than 1 nM.

Take `CCNC(=O)O[C@H]1C(=O)[C@@]2(C)C([C@H](OC(=O)c3ccccc3)[C@]3(O)C[C@H](OC(=O)[C@H](O)[C@@H](NC(=O)OC(C)(C)C)C4CCC4)C(C)=C1C3(C)C)[C@]1(OC(C)=O)CO[C@@H]1C[C@@H]2O` (stereo partly shown) [Compound 2733]: the IC50 is less than 10 nM.

As for `CCNC(=O)O[C@H]1C(=O)[C@@]2(C)C([C@H](OC(=O)c3ccccc3)[C@]3(O)C[C@H](OC(=O)[C@H](O)[C@@H](NC(=O)OC(C)(C)C)c4ccc([N+](=O)[O-])cc4)C(C)=C1C3(C)C)[C@]1(OC(C)=O)CO[C@@H]1C[C@@H]2O` (stereo partly shown) [Compound 2743], the IC50 is less than 1 nM.

In the case of `CCNC(=O)O[C@H]1C(=O)[C@@]2(C)C([C@H](OC(=O)c3ccccc3)[C@]3(O)C[C@H](OC(=O)[C@H](O)[C@@H](NC(=O)OC(C)(C)C)C4CC4)C(C)=C1C3(C)C)[C@]1(OC(C)=O)CO[C@@H]1C[C@@H]2O` (stereo partly shown) [Compound 2757], the IC50 is less than 1 nM.

Still in this assay, the particulars now being: HCT116 colony formation; 72 h drug incubation, colonies counted after 7 days; Example 10, C-10 ester/C-7 hydroxy taxanes; read-out: IN VITRO ID 50 (nm) HCT116.
On to `C/C=C/C(=O)O[C@H]1C(=O)[C@@]2(C)C([C@H](OC(=O)c3ccccc3)[C@]3(O)C[C@H](OC(=O)[C@H](O)[C@@H](NC(=O)OC(C)(C)C)c4ccsc4)C(C)=C1C3(C)C)[C@]1(OC(C)=O)CO[C@@H]1C[C@@H]2O` (stereo partly shown) [Compound 2408], for which the IC50 is less than 1 nM.

In the case of `C/C=C/C(=O)O[C@H]1C(=O)[C@@]2(C)C([C@H](OC(=O)c3ccccc3)[C@]3(O)C[C@H](OC(=O)[C@H](O)[C@@H](NC(=O)OC(C)(C)C)C(C)C)C(C)=C1C3(C)C)[C@]1(OC(C)=O)CO[C@@H]1C[C@@H]2O` (stereo partly shown) [Compound 2413], the IC50 is less than 10 nM.

Turning to `C/C=C/C(=O)O[C@H]1C(=O)[C@@]2(C)C([C@H](OC(=O)c3ccccc3)[C@]3(O)C[C@H](OC(=O)[C@H](O)[C@@H](NC(=O)OC(C)(C)C)C4CCC4)C(C)=C1C3(C)C)[C@]1(OC(C)=O)CO[C@@H]1C[C@@H]2O` (stereo partly shown) [Compound 2424], the IC50 is less than 10 nM.

`C/C=C/C(=O)O[C@H]1C(=O)[C@@]2(C)C([C@H](OC(=O)c3ccccc3)[C@]3(O)C[C@H](OC(=O)[C@H](O)[C@@H](NC(=O)OC(C)(C)C)c4ccc([N+](=O)[O-])cc4)C(C)=C1C3(C)C)[C@]1(OC(C)=O)CO[C@@H]1C[C@@H]2O` (stereo partly shown) [Compound 2439]: the IC50 is less than 10 nM.

Take `C/C=C/C(=O)O[C@H]1C(=O)[C@@]2(C)C([C@H](OC(=O)c3ccccc3)[C@]3(O)C[C@H](OC(=O)[C@H](O)[C@@H](NC(=O)OC(C)(C)C)c4ccccc4)C(C)=C1C3(C)C)[C@]1(OC(C)=O)CO[C@@H]1C[C@@H]2O` (stereo partly shown) [Compound 2442]: the IC50 is less than 1 nM.

On to `CC(=O)O[C@@]12CO[C@@H]1C[C@H](O)[C@@]1(C)C(=O)[C@H](OC(=O)C=C(C)C)C3=C(C)[C@@H](OC(=O)[C@H](O)[C@H](C=C(C)C)NC(=O)OC(C)(C)C)C[C@@](O)([C@@H](OC(=O)c4ccccc4)C12)C3(C)C` (stereo partly shown) [Compound 2455], for which the IC50 was less than 10 nM.

Take `CC(=O)O[C@@]12CO[C@@H]1C[C@H](O)[C@@]1(C)C(=O)[C@H](OC(=O)C=C(C)C)C3=C(C)[C@@H](OC(=O)[C@H](O)[C@@H](NC(=O)OC(C)(C)C)c4ccccn4)C[C@@](O)([C@@H](OC(=O)c4ccccc4)C12)C3(C)C` (stereo partly shown) [Compound 2464]: the IC50 is less than 1 nM.

As for `CC(=O)O[C@@]12CO[C@@H]1C[C@H](O)[C@@]1(C)C(=O)[C@H](OC(=O)C=C(C)C)C3=C(C)[C@@H](OC(=O)[C@H](O)[C@@H](NC(=O)OC(C)(C)C)c4ccncc4)C[C@@](O)([C@@H](OC(=O)c4ccccc4)C12)C3(C)C` (stereo partly shown) [Compound 2472], the IC50 is less than 1 nM.

For `CC(=O)O[C@@]12CO[C@@H]1C[C@H](O)[C@@]1(C)C(=O)[C@H](OC(=O)C=C(C)C)C3=C(C)[C@@H](OC(=O)[C@H](O)[C@@H](NC(=O)OC(C)(C)C)c4ccco4)C[C@@](O)([C@@H](OC(=O)c4ccccc4)C12)C3(C)C` (stereo partly shown) [Compound 2488], the IC50 was less than 1 nM.

Turning to `CC(=O)O[C@@]12CO[C@@H]1C[C@H](O)[C@@]1(C)C(=O)[C@H](OC(=O)C=C(C)C)C3=C(C)[C@@H](OC(=O)[C@H](O)[C@@H](NC(=O)OC(C)(C)C)c4ccoc4)C[C@@](O)([C@@H](OC(=O)c4ccccc4)C12)C3(C)C` (stereo partly shown) [Compound 2499], the IC50 was less than 1 nM.

Consider `CC(=O)O[C@@]12CO[C@@H]1C[C@H](O)[C@@]1(C)C(=O)[C@H](OC(=O)C=C(C)C)C3=C(C)[C@@H](OC(=O)[C@H](O)[C@@H](NC(=O)OC(C)(C)C)c4cccs4)C[C@@](O)([C@@H](OC(=O)c4ccccc4)C12)C3(C)C` (stereo partly shown) [Compound 2503], for which the IC50 is less than 1 nM.

Take `CC(=O)O[C@@]12CO[C@@H]1C[C@H](O)[C@@]1(C)C(=O)[C@H](OC(=O)C=C(C)C)C3=C(C)[C@@H](OC(=O)[C@H](O)[C@@H](NC(=O)OC(C)(C)C)c4ccsc4)C[C@@](O)([C@@H](OC(=O)c4ccccc4)C12)C3(C)C` (stereo partly shown) [Compound 2511]: the IC50 is less than 1 nM.

In the case of `CC(=O)O[C@@]12CO[C@@H]1C[C@H](O)[C@@]1(C)C(=O)[C@H](OC(=O)C=C(C)C)C3=C(C)[C@@H](OC(=O)[C@H](O)[C@@H](NC(=O)OC(C)(C)C)c4ccccc4)C[C@@](O)([C@@H](OC(=O)c4ccccc4)C12)C3(C)C` (stereo partly shown) [Compound 2520], the IC50 was less than 10 nM.

Regarding `CC(=O)O[C@@]12CO[C@@H]1C[C@H](O)[C@@]1(C)C(=O)[C@H](OC(=O)C3CC3)C3=C(C)[C@@H](OC(=O)[C@H](O)[C@@H](NC(=O)OC(C)(C)C)c4ccoc4)C[C@@](O)([C@@H](OC(=O)c4ccccc4)C12)C3(C)C` (stereo partly shown) [Compound 2781], the IC50 was less than 1 nM.

For the compound `CC(=O)O[C@@]12CO[C@@H]1C[C@H](O)[C@@]1(C)C(=O)[C@H](OC(=O)C3CC3)C3=C(C)[C@@H](OC(=O)[C@H](O)[C@@H](NC(=O)OC(C)(C)C)c4ccsc4)C[C@@](O)([C@@H](OC(=O)c4ccccc4)C12)C3(C)C` (stereo partly shown) [Compound 2794], the IC50 is less than 1 nM.

Regarding `CC(=O)O[C@@]12CO[C@@H]1C[C@H](O)[C@@]1(C)C(=O)[C@H](OC(=O)C3CC3)C3=C(C)[C@@H](OC(=O)[C@H](O)[C@@H](NC(=O)OC(C)(C)C)c4ccccn4)C[C@@](O)([C@@H](OC(=O)c4ccccc4)C12)C3(C)C` (stereo partly shown) [Compound 2802], the IC50 is less than 1 nM.

Turning to `CC(=O)O[C@@]12CO[C@@H]1C[C@H](O)[C@@]1(C)C(=O)[C@H](OC(=O)C3CC3)C3=C(C)[C@@H](OC(=O)[C@H](O)[C@@H](NC(=O)OC(C)(C)C)c4ccncc4)C[C@@](O)([C@@H](OC(=O)c4ccccc4)C12)C3(C)C` (stereo partly shown) [Compound 2813], the IC50 is less than 1 nM.

Regarding `CC(=O)O[C@@]12CO[C@@H]1C[C@H](O)[C@@]1(C)C(=O)[C@H](OC(=O)C3CC3)C3=C(C)[C@@H](OC(=O)[C@H](O)[C@@H](NC(=O)c4ccccc4)c4ccoc4)C[C@@](O)([C@@H](OC(=O)c4ccccc4)C12)C3(C)C` (stereo partly shown) [Compound 2826], the IC50 was less than 1 nM.
